Measured values as given in US20260103438A1, “PROBES AND METHODS TO IDENTIFY LIGANDABLE FATTY ACYLATION SITES FOR THERAPEUTIC TARGET IDENTIFICATION” (The General Hospital Corporation, priority 2022, published 2026).

Legend:
HEK293A cells = experiment: MS-based proteomics of proteins enriched by covalent probes; format: cell-based; details: for number of proteins collectively targeted by Compound A21, Compound B1 and Compound B4: HEK293A cells, Venn diagram (FIG. 4); for number of proteins enriched by the covalent probes also identified by SLC-ABPP: overlap with SLC-ABPP database (FIG. 5)
Protocol: For in-cell labeling, HEK293A cells with or without overexpression of proteins of interest were starved in DMEM medium with 10% dialyzed fetal bovine serum (DFBS) for 1 h and labeled using the covalent probes (10 μM) overnight. The cells were then washed and harvested using cold DPBS (14190250, Life Technologies). The cell pellets were isolated by centrifugation (500×g, 10 min) and lysed by TEA lysis buffer (50 mM TEA-HCl, pH 7.4, 150 mM NaCl, 1% Triton X-100, 0.2% SDS, 1×Protease inhibitor-EDTA free cocktail (05892791001, Roche), phosphatase inhibitor cocktail (P0044, Sigma-Aldrich)) on ice for 30 mins. The protein concentration was determined using Bio-Rad assay and adjusted to 1 mg/mL. For lysate labeling, HEK293A cells were grown in DMEM with 10% FBS. When confluence reached ˜90%, the cells were washed and harvested by cold DPBS. The cell pellets were isolated by centrifugation (500×g, 5 min) and resuspended with TEA lysis buffer (50 mM TEA-HCl, pH 7.4, 150 mM NaCl, 1% Triton X-100, IXProtease inhibitor-EDTA free cocktail, phosphatase inhibitor cocktail), incubated on ice for 15 mins, and then sonicated (7 s, 30% duty cycle, output setting=3). After centrifugation (17,000×g, 10 min), the supernatant is transferred to a clean tube. The protein concentration is determined using Bio-Rad assay and adjusted to 1 mg/mL. The lysate was then labeled with DMSO or probes (10 μM) at room temperature for 1 h with rotation. SDS was added to the lysate to a final concentration of 0.2% and the resultant solution retained for further use.
To 1.5 mg of proteomes from cell labeling or lysate labeling as described above were added 150 μL fresh prepared “click” mixture of TBTA (75 μL, 2 mM in 1:4 DMSO: t-BuOH), CuSO4 (30 μL, 50 mM in H2O), TCEP (30 μL, 50 mM in H2O) and Biotin-Azide (15 μL, 10 mM in DMSO). The samples were rotated at room temperature for 1 h. To these samples were then added MeOH (6 mL), CHCl3 (1.5 mL) and H2O (4.5 mL), and the resultant solution was mixed well. After centrifugation (17,000×g, 10 min), the aqueous layers were carefully aspirated leaving a protein disc between the organic and aqueous phases. The protein disc was washed with 6 mL of methanol and isolated by centrifugation (17,000×g, 10 min). The remaining protein pellet was collected and redissolved with 700 μL of 2% SDS in 0.1% PBST. The solution was diluted with 4.9 mL of 0.1% PBST and added 0.1% PBST-washed streptavidin agarose beads (150 μL, 1:1, sigma). After rotation at room temperature for 2 h, the beads were then pelleted by centrifugation (500×g, 5 min) and washed with 0.2% SDS in PBS (3×1 mL). The beads were transferred to a Protein Low-Binding tube and the immobilized proteins were digested by addition of urea (200 μL, 2.0 M in DPBS), CaCl2) (2.0 μL, 100 mM in H2O) and sequence grade porcine trypsin (2 μg; Promega). After digesting overnight at 37° C., the supernatant was transferred to a clean Protein Low-Binding, acidified with HCO2H (formic acid, 16 μL) and stored at −20° C. until the analyzed by LC-MS/MS.

TEAD2 = TEAD2 (Homo sapiens, UniProt Q15562); experiment: Labeling of TEAD2 by covalent probes in vitro (western blot); details: probe 1 μM, 30 mins, western blot (FIG. 1)
Myc-TEAD1 C344S mutant = target: T1, Myc-TEAD1 C344S mutant (Homo sapiens, UniProt P28347, C359S); experiment: Labeling of transfected Myc-TEAD1 wild type or C344S mutant in HEK293A cells (streptavidin pulldown, western blot); format: cell-based; details: 10 μM overnight, C344S vs wild type (FIG. 3)
T1 construct: expressed in transfected cells; host or cells: HEK293A
Protocol: HEK293A cells was seed in 6 cm dishes overnight and transfected with plasmids using PEI reagent (1 μg/μL). Briefly, proteins of interest and PEI were diluted in serum-free DMEM medium in two tubes (DNA:PEI ratio=1:2). After standing still for 5 mins, the solutions were mixed well and allowed to stand unperturbed for an additional 20 mins. The mixture was then added to dishes directly.
For in-cell labeling, HEK293A cells with or without overexpression of proteins of interest were starved in DMEM medium with 10% dialyzed fetal bovine serum (DFBS) for 1 h and labeled using the covalent probes (10 μM) overnight. The cells were then washed and harvested using cold DPBS (14190250, Life Technologies). […] The protein concentration was determined using Bio-Rad assay and adjusted to 1 mg/mL. […] The protein concentration is determined using Bio-Rad assay and adjusted to 1 mg/mL. […]
100 μL of labeled proteome was treated with 10 μL of freshly prepared “click” mixture containing 1 mM TBTA, 10 mM TCEP, 10 mM CuSO4, 1 mM Biotin-Azide and incubated for 1 h at room temperature. […] The bound proteins were eluted with a buffer containing 10 mM EDTA (pH 8.2) and 95% formamide and analyzed with SDS-PAGE. […]

IDH1WT = IDH1WT (Homo sapiens, UniProt O75874); experiment: Auto-palmitoylation of recombinant IDH1 WT with Alkyne Palmitoyl-CoA (western blot); details: indicated concentrations, 30 mins (FIG. 6D)
PCNA = PCNA (Homo sapiens, UniProt P12004); experiment: Auto-palmitoylation of recombinant PCNA with Alkyne Palmitoyl-CoA (western blot); details: indicated concentrations, 30 mins (FIG. 6A)
RAP1A = target: T2, RAP1A (Homo sapiens, UniProt P62834); experiment: Auto-palmitoylation of recombinant RAP1A with Alkyne Palmitoyl-CoA (western blot); details: indicated concentrations, 30 mins (FIG. 6B)
T2 sequence (P62834 1-184): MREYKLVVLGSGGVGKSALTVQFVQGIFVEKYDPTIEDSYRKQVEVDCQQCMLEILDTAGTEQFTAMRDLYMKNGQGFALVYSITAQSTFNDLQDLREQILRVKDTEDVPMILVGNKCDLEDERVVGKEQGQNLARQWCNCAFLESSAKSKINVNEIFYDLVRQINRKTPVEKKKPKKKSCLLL

RRAS2 = target: T3, RRAS2 (Homo sapiens, UniProt P62070); experiment: Auto-palmitoylation of recombinant RRAS2 with Alkyne Palmitoyl-CoA (western blot); details: indicated concentrations, 30 mins (FIG. 6C)
T3 sequence (P62070 1-204): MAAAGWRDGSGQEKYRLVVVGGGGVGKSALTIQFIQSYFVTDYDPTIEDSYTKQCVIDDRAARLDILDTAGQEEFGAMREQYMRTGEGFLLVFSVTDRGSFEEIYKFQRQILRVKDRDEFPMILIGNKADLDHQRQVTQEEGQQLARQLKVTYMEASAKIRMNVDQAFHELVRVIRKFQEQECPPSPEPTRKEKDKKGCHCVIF

Sequence of TEAD2 (Q15562 whole entry, species assumed): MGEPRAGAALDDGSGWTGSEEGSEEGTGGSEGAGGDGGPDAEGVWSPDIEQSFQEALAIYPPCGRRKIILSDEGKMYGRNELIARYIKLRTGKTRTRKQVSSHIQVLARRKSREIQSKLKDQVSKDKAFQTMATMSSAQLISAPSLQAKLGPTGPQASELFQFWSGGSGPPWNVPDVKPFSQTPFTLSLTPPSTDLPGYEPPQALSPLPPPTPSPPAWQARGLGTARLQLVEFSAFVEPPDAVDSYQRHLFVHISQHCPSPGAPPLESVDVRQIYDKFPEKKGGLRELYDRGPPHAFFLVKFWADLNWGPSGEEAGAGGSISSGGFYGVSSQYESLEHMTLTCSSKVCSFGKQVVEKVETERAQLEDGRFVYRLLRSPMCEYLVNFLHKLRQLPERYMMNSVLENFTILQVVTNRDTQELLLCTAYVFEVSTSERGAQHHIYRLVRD
T1 sequence (P28347 16-426 C359S limits assumed): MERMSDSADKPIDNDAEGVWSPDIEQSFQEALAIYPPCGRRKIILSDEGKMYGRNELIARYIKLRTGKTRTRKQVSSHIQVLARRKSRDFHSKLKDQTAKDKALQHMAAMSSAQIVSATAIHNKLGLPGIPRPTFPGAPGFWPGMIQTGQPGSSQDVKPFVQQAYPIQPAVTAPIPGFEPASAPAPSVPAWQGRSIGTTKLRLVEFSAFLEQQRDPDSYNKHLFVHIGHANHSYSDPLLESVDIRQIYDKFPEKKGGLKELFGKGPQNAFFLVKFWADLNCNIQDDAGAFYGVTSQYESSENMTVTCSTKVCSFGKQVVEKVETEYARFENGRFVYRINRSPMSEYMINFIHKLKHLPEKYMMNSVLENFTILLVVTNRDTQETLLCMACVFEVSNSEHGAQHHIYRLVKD
Sequence of IDH1WT (O75874 whole entry): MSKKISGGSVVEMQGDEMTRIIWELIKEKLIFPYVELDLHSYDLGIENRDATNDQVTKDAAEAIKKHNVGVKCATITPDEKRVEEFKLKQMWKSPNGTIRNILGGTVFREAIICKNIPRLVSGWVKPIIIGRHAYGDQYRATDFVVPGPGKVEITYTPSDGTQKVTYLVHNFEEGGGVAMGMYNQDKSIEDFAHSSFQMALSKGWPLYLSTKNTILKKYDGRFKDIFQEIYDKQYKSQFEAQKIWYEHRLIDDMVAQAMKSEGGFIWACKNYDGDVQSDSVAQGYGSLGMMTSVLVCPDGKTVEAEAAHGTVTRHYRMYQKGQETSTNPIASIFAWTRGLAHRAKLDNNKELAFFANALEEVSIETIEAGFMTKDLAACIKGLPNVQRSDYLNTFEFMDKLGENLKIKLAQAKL
Sequence of PCNA (P12004 whole entry): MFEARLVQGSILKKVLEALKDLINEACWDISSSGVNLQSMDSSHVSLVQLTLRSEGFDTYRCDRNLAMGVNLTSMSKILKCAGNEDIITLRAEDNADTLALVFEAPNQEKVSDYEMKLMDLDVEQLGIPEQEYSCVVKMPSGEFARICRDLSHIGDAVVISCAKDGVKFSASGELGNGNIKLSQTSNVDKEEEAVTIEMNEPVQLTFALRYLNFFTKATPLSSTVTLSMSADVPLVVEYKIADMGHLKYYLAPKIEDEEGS

labeling efficiency of TEAD2 (TEAD2)	Structure (SMILES)	number of proteins collectively targeted by Compound A21, Compound B1 and Compound B4 (HEK293A cells)	number of proteins enriched by the covalent probes also identified by SLC-ABPP (HEK293A cells)	other results
strong labeling efficiency	C#CCCCCCCCCCCCCNC(=O)CBr [Compound B4, 2-bromo-N-(tetradec-13-yn-1-yl)acetamide]	One hundred and sixty	191 proteins	effect of mutating cysteine 344 (C344S) on labeling of Myc-TEAD1 by the probe (Myc-TEAD1 C344S mutant): inhibited labeling
strong labeling efficiency	C#CCCCCCCCCCCCCCCNC(=O)CBr [Compound B1, 2-bromo-N-(hexadec-15-yn-1-yl)acetamide]	One hundred and sixty	191 proteins	–

More lines, now with the values behind:

Structure (SMILES)	labeling efficiency of TEAD2 (TEAD2)	number of proteins collectively targeted by Compound A21, Compound B1 and Compound B4 (HEK293A cells)	number of proteins enriched by the covalent probes also identified by SLC-ABPP (HEK293A cells)	other results
C#CCCCCCCCCCCCCCCNC(=O)CI [Compound A21, N-(hexadec-15-yn-1-yl)-2-iodoacetamide]	strong labeling efficiency	One hundred and sixty	191 proteins	–
C#CCCCCCCCCCCCCCCNS(=O)(=O)C=C [Compound A26, N-(hexadec-15-yn-1-yl)ethenesulfonamide]	strong labeling efficiency	–	–	–
C#CCCCCCCCCCCCCNC(=O)CI [Compound A63, 2-iodo-N-(tetradec-13-yn-1-yl)acetamide]	strong labeling efficiency	–	–	–
C#CCCCCCCCCCCCCNS(=O)(=O)C=C [Compound A64, N-(tetradec-13-yn-1-yl)ethenesulfonamide]	strong labeling efficiency	–	–	–
C#CCCCCCCCCCCCCCC(=O)SCCNC(=O)CCNC(=O)[C@H](O)C(C)(C)COP(=O)(O)OP(=O)(O)OC[C@H]1O[C@@H](n2cnc3c(N)ncnc32)[C@H](O)[C@@H]1OP(=O)(O)O [Alkyne Palmitoyl-CoA]	–	–	–	auto-palmitoylation (labeling) of IDH1 WT (IDH1WT): auto-palmitoylated in a dose dependent manner; auto-palmitoylation (labeling) of PCNA (PCNA): auto-palmitoylated in a dose dependent manner; auto-palmitoylation (labeling) of RAP1A (RAP1A): auto-palmitoylated in a dose dependent manner; auto-palmitoylation (labeling) of RRAS2 (RRAS2): auto-palmitoylated in a dose dependent manner
